In PMC4110978 (Expert opinion on drug metabolism & toxicology, 2009):

Experiments:
human hepatocytes = assay: Metabolic clearance in 3D perfused bioreactor; conditions: day 4, four experiments; probe incubated 24 h; disappearance by LC/MS/MS
rat hepatocytes = assay: Metabolic clearance in 3D perfused bioreactor; conditions: day 6, two experiments; probe incubated 24 h; disappearance by LC/MS/MS

SMILES	Clearance values, Human LiverChip (human hepatocytes)	Clearance values, Rat LiverChip (rat hepatocytes)
Cc1ncc2n1-c1ccc(Cl)cc1C(c1ccccc1F)=NC2 [Midazolam]	13 µL per min, per million cells	38 µL per min, per million cells
C=CCN1CC[C@]23c4c5ccc(O)c4O[C@H]2C(=O)CC[C@@]3(O)[C@H]1C5 [Naloxone]	29 µL per min, per million cells	39 µL per min, per million cells
